Data from ChEMBL document CHEMBL3352469, “Pyrrolo- and pyridomorphinans: non-selective opioid antagonists and delta opioid agonists/mu opioid partial agonists” (Bioorg Med Chem, 2014).

Legend:
Mu-type opioid receptor [1] = molecular target: T1, Mu-type opioid receptor (Homo sapiens, UniProt P35372); assay: Displacement of [3H]DAMGO from human recombinant mu opioid receptor expressed in CHO cell membranes after 60 mins by scintillation counting method
[2] = molecular target: T2, Kappa-type opioid receptor (Homo sapiens, UniProt P41145); assay: Displacement of [3H]U69593 from human recombinant kappa opioid receptor expressed in CHO cell membranes after 60 mins by scintillation counting method
[3] = molecular target: T2, Kappa-type opioid receptor; assay: Agonist activity at human recombinant kappa opioid receptor expressed in CHO cell membranes after 60 mins by [35S]GTPgammaS binding assay; assay type: functional
[4] = molecular target: T3, Delta-type opioid receptor (Homo sapiens, UniProt P41143); assay: Agonist activity at human recombinant delta opioid receptor expressed in CHO cell membranes after 60 mins by [35S]GTPgammaS binding assay; assay type: functional
[5] = molecular target: T2, Kappa-type opioid receptor; assay: Agonist activity at human recombinant kappa opioid receptor expressed in CHO cell membranes after 60 mins by [35S]GTPgammaS binding assay relative to U69593; assay type: functional
Mu-type opioid receptor [6] = molecular target: T1, Mu-type opioid receptor; assay: Agonist activity at human recombinant mu opioid receptor expressed in CHO cell membranes after 60 mins by [35S]GTPgammaS binding assay; assay type: functional
[7] = molecular target: T3, Delta-type opioid receptor; assay: Displacement of [3H]Cl-DPDPE from human recombinant delta opioid receptor expressed in CHO cell membranes after 60 mins by scintillation counting method
[8] = molecular target: T3, Delta-type opioid receptor; assay: Agonist activity at human recombinant delta opioid receptor expressed in CHO cell membranes after 60 mins by [35S]GTPgammaS binding assay relative to DPDPE; assay type: functional
Mu-type opioid receptor [9] = molecular target: T1, Mu-type opioid receptor; assay: Agonist activity at human recombinant mu opioid receptor expressed in CHO cell membranes after 60 mins by [35S]GTPgammaS binding assay relative to DAMGO; assay type: functional
Homo sapiens [10] = species: Homo sapiens; assay: Selectivity for human recombinant delta opioid receptor over human mu opioid receptor
Homo sapiens [11] = species: Homo sapiens; assay: Selectivity for human recombinant delta opioid receptor over human kappa opioid receptor
[12] = molecular target: T2, Kappa-type opioid receptor; assay: Antagonist activity at human recombinant kappa opioid receptor expressed in CHO cell membranes assessed as inhibition of U69593-induced response after 60 mins by [35S]GTPgammaS binding assay; assay type: functional
Mu-type opioid receptor [13] = molecular target: T1, Mu-type opioid receptor; assay: Agonist activity at human recombinant mu opioid receptor expressed in CHO cell membranes at 10 uM after 60 mins by [35S]GTPgammaS binding assay relative to DAMGO; assay type: functional
[14] = molecular target: T2, Kappa-type opioid receptor; assay: Agonist activity at human recombinant kappa opioid receptor expressed in CHO cell membranes at 10 uM after 60 mins by [35S]GTPgammaS binding assay relative to U69593; assay type: functional
Nociceptin receptor [15] = molecular target: T4, Nociceptin receptor (Homo sapiens, UniProt P41146); assay: Agonist activity at human recombinant NOPR receptor expressed in CHO cell membranes at 10 uM after 60 mins by [35S]GTPgammaS binding assay relative to nociceptin; assay type: functional
Nociceptin receptor [16] = molecular target: T4, Nociceptin receptor; assay: Displacement of [3H]nociceptin from human recombinant NOP receptor expressed in CHO cell membranes after 60 mins by scintillation counting method
Mu-type opioid receptor [17] = molecular target: T1, Mu-type opioid receptor; assay: Antagonist activity at human recombinant mu opioid receptor expressed in CHO cell membranes assessed as inhibition of DAMGO-induced response after 60 mins by [35S]GTPgammaS binding assay; assay type: functional
[18] = molecular target: T3, Delta-type opioid receptor; assay: Antagonist activity at human recombinant delta opioid receptor expressed in CHO cell membranes assessed as inhibition of DPDPE-induced response after 60 mins by [35S]GTPgammaS binding assay; assay type: functional
Homo sapiens [19] = species: Homo sapiens; assay: Selectivity for human recombinant mu opioid receptor over human delta opioid receptor
Homo sapiens [20] = species: Homo sapiens; assay: Selectivity for human recombinant mu opioid receptor over human kappa opioid receptor

T2 sequence (P41145 whole entry): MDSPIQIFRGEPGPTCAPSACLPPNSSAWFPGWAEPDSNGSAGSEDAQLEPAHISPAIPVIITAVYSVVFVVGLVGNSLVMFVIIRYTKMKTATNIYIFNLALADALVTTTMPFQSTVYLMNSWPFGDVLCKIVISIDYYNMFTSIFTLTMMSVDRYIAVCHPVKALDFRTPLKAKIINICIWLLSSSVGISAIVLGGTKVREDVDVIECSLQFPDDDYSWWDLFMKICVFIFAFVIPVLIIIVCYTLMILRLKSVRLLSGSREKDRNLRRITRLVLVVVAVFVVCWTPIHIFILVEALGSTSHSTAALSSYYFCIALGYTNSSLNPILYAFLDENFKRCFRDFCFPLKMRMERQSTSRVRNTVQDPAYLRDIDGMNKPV
T1 sequence (P35372 whole entry): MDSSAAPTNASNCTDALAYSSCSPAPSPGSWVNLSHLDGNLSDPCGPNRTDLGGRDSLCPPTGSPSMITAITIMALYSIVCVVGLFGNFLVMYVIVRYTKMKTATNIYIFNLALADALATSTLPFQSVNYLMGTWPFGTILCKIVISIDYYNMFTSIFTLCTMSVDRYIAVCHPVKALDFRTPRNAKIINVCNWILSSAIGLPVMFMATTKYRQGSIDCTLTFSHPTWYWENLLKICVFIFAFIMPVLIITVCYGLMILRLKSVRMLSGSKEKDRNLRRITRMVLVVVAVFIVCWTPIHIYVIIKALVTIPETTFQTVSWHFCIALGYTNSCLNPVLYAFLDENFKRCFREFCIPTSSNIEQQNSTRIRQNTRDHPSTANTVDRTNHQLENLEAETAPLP
T3 sequence (P41143 whole entry): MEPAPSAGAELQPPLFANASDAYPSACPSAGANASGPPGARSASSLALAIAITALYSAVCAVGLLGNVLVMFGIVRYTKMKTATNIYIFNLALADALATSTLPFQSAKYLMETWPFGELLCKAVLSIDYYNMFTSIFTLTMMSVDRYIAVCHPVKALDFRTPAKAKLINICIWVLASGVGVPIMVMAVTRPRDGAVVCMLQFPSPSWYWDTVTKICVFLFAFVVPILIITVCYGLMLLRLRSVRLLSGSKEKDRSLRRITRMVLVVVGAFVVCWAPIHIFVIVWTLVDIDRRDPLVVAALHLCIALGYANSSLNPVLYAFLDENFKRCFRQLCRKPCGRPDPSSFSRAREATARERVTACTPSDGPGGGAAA
T4 sequence (P41146 whole entry): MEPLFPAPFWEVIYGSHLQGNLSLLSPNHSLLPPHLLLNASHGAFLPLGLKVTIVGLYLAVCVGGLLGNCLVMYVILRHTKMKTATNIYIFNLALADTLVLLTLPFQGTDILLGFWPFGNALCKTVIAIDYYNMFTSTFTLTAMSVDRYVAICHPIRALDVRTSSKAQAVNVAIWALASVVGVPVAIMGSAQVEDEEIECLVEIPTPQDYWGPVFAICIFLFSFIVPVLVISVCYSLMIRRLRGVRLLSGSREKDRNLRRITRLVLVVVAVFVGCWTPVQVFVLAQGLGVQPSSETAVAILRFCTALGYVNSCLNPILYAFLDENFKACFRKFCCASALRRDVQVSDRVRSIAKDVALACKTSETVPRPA

SMILES	Ki (Mu-type opioid receptor [1]) [nM]	Ki [2] [nM]	EC50 [4] [nM]	EC50 (Mu-type opioid receptor [6]) [nM]	Ki [7] [nM]	Activity [8] [%]	Activity (Mu-type opioid receptor [9]) [%]	Ke [12] [nM]	Smax (Mu-type opioid receptor [13]) [%]	Smax [14] [%]	Smax (Nociceptin receptor [15]) [%]	Ke (Mu-type opioid receptor [17]) [nM]	further results
CCOC(=O)Cc1c2c(n(Cc3ccccc3)c1O)[C@@H]1Oc3c(O)ccc4c3[C@@]13CCN(C)[C@H](C4)[C@]3(O)C2	13.2	159	42.5	70.5	82.1	74	86						EC50 [3]: 434 nM; Activity [5]: 23%
Cc1[nH]c2c(c1Cc1ccccc1)C[C@@]1(O)[C@H]3Cc4ccc(O)c5c4[C@@]1(CCN3CC1CC1)[C@H]2O5													Selectivity ratio (Homo sapiens [10]): 40; Selectivity ratio (Homo sapiens [11]): 40
CN1C(=O)[C@H](CCO)CC2=C1[C@@H]1Oc3c(O)ccc4c3[C@@]13CCN(C)[C@H](C4)[C@]3(O)C2	2.37	48.7	11.8	163	3.59	66	36	321					
O=C1CCC2=C([C@@H]3Oc4c(O)ccc5c4[C@@]34CCN(CC3CC3)[C@H](C5)[C@]4(O)C2)N1CCc1ccccc1									1	-10	5		Ki (Nociceptin receptor [16]): 1500 nM
CN1CC[C@]23c4c5ccc(O)c4O[C@H]2C2=C(C[C@@H](CCO)C(=O)N2Cc2ccccc2)C[C@@]3(O)[C@H]1C5	2.03	4.68	2.37		1.02	73		29.3				32.9	
O=C1[C@H](CCO)CC2=C([C@@H]3Oc4c(O)ccc5c4[C@@]34CCN(CC3CC3)[C@H](C5)[C@]4(O)C2)N1Cc1ccccc1	0.43	1.29			0.7			0.73				0.35	Ke [18]: 0.47 nM
CN1CC[C@]23c4c5ccc(O)c4O[C@H]2C2=C(CCC(=O)N2Cc2ccccc2)C[C@@]3(O)[C@H]1C5	0.29	1.98	3	4.97	0.92		52	21.3					Ratio Ki (Homo sapiens [19]): 3; Ratio Ki (Homo sapiens [20]): 3
C[C@@H]1CC2=C([C@@H]3Oc4c(O)ccc5c4[C@@]34CCN(CC3CC3)[C@H](C5)[C@]4(O)C2)N(Cc2ccccc2)C1=O	0.56	0.95			0.85			0.23				0.5	Ke [18]: 0.23 nM
O=C1CCC2=C([C@@H]3Oc4c(O)ccc5c4[C@@]34CCN(CC3CC3)[C@H](C5)[C@]4(O)C2)N1CC1CCCCC1	0.11	0.33			0.28				-1	-5	5		Ki (Nociceptin receptor [16]): 880 nM
C=CCN1CC[C@]23c4c5ccc(O)c4O[C@H]2C2=C(CCC(=O)N2CCc2ccccc2)C[C@@]3(O)[C@H]1C5									-2	-15	4		
CCOC(=O)Cc1c2c(n(Cc3ccccc3)c1O)[C@@H]1Oc3c(O)ccc4c3[C@@]13CCN(CC1CC1)[C@H](C4)[C@]3(O)C2	8.65	4.79			10							6.61	Ke [18]: 6.79 nM
CN1C(=O)CCC2=C1[C@@H]1Oc3c(O)ccc4c3[C@@]13CCN(C)[C@H](C4)[C@]3(O)C2	1.23	20.4	25.5	80	9.39	67	40						
CN1CC[C@]23c4c5ccc(O)c4O[C@H]2C2=C(C[C@H](CCO)C(=O)N2Cc2ccccc2)C[C@@]3(O)[C@H]1C5	3	15.6	10.6	94.9	2.85	68	36	16.8					
O=C1CCC2=C([C@@H]3Oc4c(O)ccc5c4[C@@]34CCN(CC3CC3)[C@H](C5)[C@]4(O)C2)N1Cc1cccc(F)c1									-1	-9	7		
CN1C(=O)[C@@H](CCO)CC2=C1[C@@H]1Oc3c(O)ccc4c3[C@@]13CCN(C)[C@H](C4)[C@]3(O)C2	12.8	182	30.6	709	9.25	80	37	2140					
O=C1CCC2=C([C@@H]3Oc4c(O)ccc5c4[C@@]34CCN(CC3CC3)[C@H](C5)[C@]4(O)C2)N1Cc1ccccc1	0.18	0.15			0.36				-1	-20	12		Ki (Nociceptin receptor [16]): 1300 nM
O=C1[C@@H](CCO)CC2=C([C@@H]3Oc4c(O)ccc5c4[C@@]34CCN(CC3CC3)[C@H](C5)[C@]4(O)C2)N1Cc1ccccc1	1.54	2.76			2.38			2.22				1.62	Ke [18]: 0.93 nM
O=C1CCC2=C([C@@H]3Oc4c(O)ccc5c4[C@@]34CCN(CC3CC3)[C@H](C5)[C@]4(O)C2)N1Cc1cccc(Cl)c1									-1	-11	7		
C[C@H]1CC2=C([C@@H]3Oc4c(O)ccc5c4[C@@]34CCN(CC3CC3)[C@H](C5)[C@]4(O)C2)N(Cc2ccccc2)C1=O	0.42	0.71			1.58			2.03				0.6	Ke [18]: 0.57 nM
